# Patent US4124369A, “Combating fungi and controlling plant growth with 1-amido-1-azolyl-2-hydroxy- or -keto-alkanes” (Bayer Aktiengesellschaft, priority 1976, dated 1978)
# System: barley plants
# Assay: Inhibition of growth/barley
# Assay type: in vivo
# Conditions: 0.05%; 100% = growth stopped, 0% = growth of untreated control
# Source text: Inhibition of growth/barley
# (§1) Solvent: 10 parts by weight of methanol
# (§2) Emulsifier: 2 parts by weight of polyoxyethylene sorbitan monolaurate
# To prepare a suitable preparation of active compound, 1 part by weight of active compound was mixed with the stated amount of solvent and emulsifier and the mixture was made up to the desired concentration with water.
# Young barley plants, in the 2-leaf stage, were sprayed with the preparation of active compound until dripping wet. After the untreated control plants had reached a growth height of about 60 cm, the additional growth of all the plants was measured and the inhibition of growth in % of the additional growth of the control plants was calculated. 100% meant that growth had stopped and 0% denoted a growth corresponding to that of the untreated control plants.
# The active compounds, concentrations of the active compounds and results can be seen from the table which follows.
row,SMILES,Inhibition of growth in %
1,CC(C)(C)C(=O)C(NC(=O)COc1ccc(Cl)cc1Cl)n1ccnc1 (centres unmarked) [drawing 41],45%

# System: Erysiphe graminis var. hordei
# Assay: Shoot treatment test/powdery mildew of cereals/protective
# Assay type: in vivo, Erysiphe graminis var. hordei on barley (Amsel variety)
# Conditions: 0.01% by weight active compound in the spray liquor; protective; 6 days; 0% = no infection
# Procedure: shoot treatment test/powdery mildew of cereals/protective (leaf-destructivemycosis)
# To produce a suitable preparation of active compound, 0.25 part by weight of active compound was taken up in 25 parts by weight of dimethylformamide and 0.06 part by weight of emulsifier alkylarylpolyglycol ether and then 975 parts by weight of water were added. The concentration was diluted with water to the desired final concentration of the spray liquor.
# To test for protective activity, single-leaved young barley plants of the Amsel variety were sprayed with the preparation of active compound until dew-moist. After drying, the barley plants were dusted with spores of Erysiphe graminis var. hordei.
# After 6 days' dwell time of the plants at a temperature of 21°-22° C. and 80-90% atmospheric humidity the occurrence of mildew pustules on the plants was evaluated. The degree of infection was expressed as a percentage of the infection of the untreated control plants. 0% denoted no infection and 100% denoted that same degree of infection as in the case of the untreated control.
# The active compounds, the concentrations of the active compounds in the spray liquor and degrees of infection can be seen from the table which follows: […]
row,SMILES,Infection in % of the untreated control
1,CC(C)(C)C(=O)C(NC(=O)c1ccc(Cl)cc1)n1cncn1 (centres unmarked) [drawing 14],0.0%
2,"c1ccc(C(c2ccccc2)(c2ccccc2)n2cncn2)cc1 [drawing 13, reference compound]",100.0%
3,CC(C)(C)C(=O)C(NC(=O)COc1ccccc1)n1cncn1 (centres unmarked),32.5%

# Same assay, conditions: 0.025% by weight active compound in the spray liquor; protective; 6 days; 0% = no infection
row,SMILES,Infection in % of the untreated control
1,CC(C)(C)C(=O)C(NC(=O)Cc1ccccc1)n1cncn1 (centres unmarked) [drawing 24],40.0%
2,CC(C)(C)C(O)C(NC(=O)c1ccccc1)n1cncn1 (centres unmarked) [drawing 25],40.0%
3,"c1ccc(C(c2ccccc2)(c2ccccc2)n2cncn2)cc1 [drawing 13, reference compound]",100.0%
4,CC(C)(C)C(O)C(NC(=O)c1ccccc1Cl)n1ccnc1 (centres unmarked) [drawing 19],28.8%
5,CC(C)(C)C(=O)C(NC(=O)c1cc(Cl)ccc1Cl)n1ccnc1 (centres unmarked),21.3%
6,CC(C)(C)C(=O)NC(C(=O)C(C)(C)C)n1ccnc1 (centres unmarked),30.0%
7,CC(C)(C)C(=O)C(NC(=O)c1ccccc1)n1cncn1 (centres unmarked) [drawing 18],500%
8,CC(C)(C)C(O)C(NC(=O)c1cc(Cl)ccc1Cl)n1cncn1 (centres unmarked) [drawing 23],40.0%
9,CC(C)(C)C(=O)C(NC(=O)c1ccccc1)n1ccnc1 (centres unmarked),12.5%
10,CC(C)(C)C(=O)C(NC(=O)c1cccc(Cl)c1)n1ccnc1 (centres unmarked) [drawing 20],28.8%
11,CC(C)(C)C(=O)C(NC(=O)c1ccccc1Cl)n1cncn1 (centres unmarked) [drawing 16],50.0%
12,CC(C)(C)C(=O)C(NC(=O)c1cc(Cl)ccc1Cl)n1cncn1 (centres unmarked),50.0%

# System: tobacco plants
# Assay: Inhibition of the growth of side shoots of tobacco
# Assay type: in vivo
# Conditions: 0.2%; after 3 weeks; 100% = absence of side shoots
# Source text: inhibition of the growth of side shoots of tobacco
# as §1
# Emulsifier: 2 parts by weight of polyoxyethylene-sorbitan monolaurate
# To prepare a suitable preparation of active compound, 1 parts by weight of active compound was mixed with the stated amounts of solvent and emulsifier and the mixture was made up to the desired concentration with water.
# The shoot tips of about 50 cm high tobacco plants were broken off. On the following day, the plants were sprayed with the preparations of active compound until dripping wet. After 3 weeks, the side shoots which had formed during this time were broken off. All the side shoots of one treatment were weighed. The weight of the side shoots of the treated plants was compared with the weight of the side shoots of the untreated control plant. 100% inhibition denoted the absence of side shoots and 0% denoted a growth of side shoots which correspond to that of the control plants.
# The active compounds, the concentrations of the active compounds and results can be seen from the table which follows: […]
row,SMILES,Inhibition in % (growth of side shoots)
1,CC(C)(C)C(=O)C(NC(=O)COc1ccc(Cl)cc1Cl)n1ccnc1 (centres unmarked) [drawing 42],97%

# System: soya bean plants
# Assay: Influence on growth/soya beans
# Assay type: in vivo
# Conditions: 0.05%; footnote *
# Source text: influence on growth/soya beans
# as §1, §2
# To prepare a suitable preparation of active compound, 1 part by weight of active compound was mixed with the stated amounts of solvent and emulsifier and the mixture was made up to the desired concentration with water.
# Young soya bean plants, in the stage in which the first secondary leaves had unfolded, were sprayed with the preparation of active compound until dripping wet. After 3 weeks, the additional growth was measured and the inhibition of growth in % of the additional growth of the control plants was calculated. 0% denoted growth corresponding to that of the control plants. Positive values characterized promotion of growth compared to the control plants while negative values corrrespondingly indicated an inhibition of growth.
# The active compounds, concentrations of the active compounds and results can be seen from the table which follows: […]
row,SMILES,"Influence on growth, note on leaves"
1,CC(C)(C)C(=O)C(NC(=O)COc1ccc(Cl)cc1Cl)n1ccnc1 (centres unmarked) [drawing 38],dark green leaves

# System: Erysiphe graminis var. hordei
# Assay: Powdery mildew of barley test/systemic (seed treatment)
# Assay type: in vivo, Erysiphe graminis var. hordei on barley
# Conditions: 25% by weight active compound in the dressing, 10 g dressing/kg of seed, systemic, 0% = no infection
# Procedure: powdery mildew of barley (Erysiphe graminis var.hordei)/systemic (fungal disease of cereal shoots) The active compounds were used as pulverulent seed treatment agents. They were prepared by extending the particular active compound with a mixture of equal parts by weight of talc and kieselguhr to give a finely pulverulent mixture of the desired concentration of active compound. For the treatment of seed, barley seed was shaken with the extended active compound in a closed glass bottle. The seed was sown at the rate of 3 × 12 grains in flowerpots, 2 cm deep in a mixture of one part by volume of Fruhstorfer standard soil and one part by volume of quartz sand. The germination and emergence took place under favorable conditions in a greenhouse. 7 days after sowing, when the barley plants have developed their first leaf, they were dusted with fresh spores of Erysiphe graminis var. hordei and grown on at 21°-22° C. and 80-90% relative atmospheric humidity and 16 hours' exposure to light. The typical mildew pustules formed on the leaves over the course of 6 days. The degree of infection was expressed as a percentage of the infection of the untreated control plants. Thus, 0% denoted no infection and 100% denoted the same degree of infection as in the case of the untreated control. […] The active compounds and concentrations of active compound in the seed treatment agent, as well as the amount used of the latter, and the percentage infection with mildew can be seen from the table which follows: […]
row,SMILES,Infection in % of the untreated control
1,CC(C)(C)C(=O)C(NC(=O)c1ccccc1)n1cncn1 (centres unmarked) [drawing 30],0.0%
2,CC(C)(C)C(=O)C(NC(=O)Cc1ccccc1)n1cncn1 (centres unmarked) [drawing 34],0.0%
3,CC(C)(C)C(=O)NC(C(=O)C(C)(C)C)n1cncn1 (centres unmarked),25.0%
4,CC(C)(C)C(=O)C(NC(=O)c1ccccc1Cl)n1cncn1 (centres unmarked) [drawing 29],0.0%
5,CC(C)(C)C(O)C(NC(=O)c1ccccc1Cl)n1ccnc1 (centres unmarked) [drawing 31],58.8%
6,CC(C)(C)C(O)C(NC(=O)c1cc(Cl)ccc1Cl)n1cncn1 (centres unmarked) [drawing 33],25.0%
7,CC(C)(C)C(=O)C(NC(=O)c1cccc(Cl)c1)n1ccnc1 (centres unmarked) [drawing 32],50.0%
8,CC(C)(C)C(=O)C(NC(=O)Cc1ccccc1)n1ccnc1 (centres unmarked),50.0%
9,"c1ccc(C(c2ccccc2)(c2ccccc2)n2cncn2)cc1 [drawing 27, reference compound]",88.8%
10,CC(C)(C)C(O)C(NC(=O)c1ccccc1)n1cncn1 (centres unmarked) [drawing 35],17.5%
11,CC(C)(C)C(=O)C(NC(=O)c1ccccc1Cl)n1ccnc1 (centres unmarked),55.0%

# System: Podosphaera leucotricha
# Assay: Podosphaera test (apple)/protective
# Assay type: in vivo
# Conditions: 0.00125% active compound; protective; 10 days after inoculation; 0% = no infection, 100% = completely infected
# Procedure: podosphaera test (apple)/protective Solvent: 4.7 parts by weight of acetone Emulsifier: 0.3 part by weight of alkylaryl polyglycol ether Water: 95 parts by weight The amount of active compound required for the desired concentration of the active compound in the spray liquid was mixed with the stated amount of solvent, and the concentrate was diluted with the stated amount of water which contained the stated additions. Young apple seedlings in the 4-6 leaved stage were sprayed with the spray liquid until dripping wet. The plants remained in a greenhouse for 24 hours at 20° C. and at a relative atmospheric humidity of 70%. They were then inoculated by dusting with conidia of the apple powdery mildew causative organism (Podosphaera leucotricha) and placed in a greenhouse at a temperature of 21°-23° C. and at a relative atmospheric humidity of about 70%. 10 days after the inoculation, the infection of the seedlings was determined. The ratings obtained were converted to percent infection. 0% meant no infection: 100% meant that the plants were completely infected. The active compounds, the concentrations of the active compounds and the results can be seen from the following table: […]
row,SMILES,Infection in % at an active compound concentration of 0.00125%
1,"CC(C)(C)C(=O)C(NC(=O)c1ccc(Cl)cc1)n1cncn1 (centres unmarked) [Compound 1, 1-(p-chlorobenzamido)-3,3-dimethyl-1-(1,2,4-triazol-1-yl) butan-2-one]",50%
2,"c1ccc(C(c2ccccc2)(c2ccccc2)n2cncn2)cc1 [A, triphenyl-1,2,4-triazol-1-yl-methane, reference compound]",85%

# System: Fusicladium dendriticum
# Assay: Fusicladium test (apple)/protective
# Assay type: in vivo, Fusicladium dendriticum (apple scab) on apple seedlings
# Conditions: 0.0025% active compound; protective; 15 days after inoculation; 0% = no infection, 100% = completely infected
# Procedure: fusicladium test (apple)/Protective Solvent: 4.7 parts by weight of acetone Emulsifier: 0.3 part by weight of alkylaryl polyglycol ether Water: 95 parts by weight. The amount of active compound required for the desired concentration of the active compound in the spray liquid was mixed with the stated amount of solvent, and the concentrate was diluted with the stated amount of water which contained with stated additions. Young apple seedlings in the 4-6 leaved stage were sprayed with the spray liquid until dripping wet. The plants remained in a greenhouse for 24 hours at 20° C. and at a relative atmospheric humidity of 70%. They were then inoculated with an aqueous conidium suspension of the apple scab causative organism (Fusicladium dendriticum) and incubated for 18 hours in a humidity chamber at 18°-20° C. and at a relative atmospheric humidity of 100%. The plants were then brought into a greenhouse for 14 days. 15 days after inoculation, the infection of the seedlings was determined. The ratings obtained were converted to percent infection. 0% meant no infection; 100% meant that the plants were completely infected. The active compounds, the concentrations of the active compounds and the results can be seen from the following table: […]
row,SMILES,Infection in % at an active compound concentration of 0.0025%
1,"CC(C)(C)C(=O)C(NC(=O)c1ccc(Cl)cc1)n1cncn1 (centres unmarked) [Compound 1, 1-(p-chlorobenzamido)-3,3-dimethyl-1-(1,2,4-triazol-1-yl) butan-2-one]",50%
2,"c1ccc(C(c2ccccc2)(c2ccccc2)n2cncn2)cc1 [A, triphenyl-1,2,4-triazol-1-yl-methane, reference compound]",83%

# System: fungi
# Assay: not given
# Conditions: German Offenlegungsschrift 1,795,249; cited from earlier work
row,SMILES,fungicidal activity (prior art)
1,"c1ccc(C(c2ccccc2)(c2ccccc2)n2cncn2)cc1 [A, triphenyl-1,2,4-triazol-1-yl-methane, reference compound]",good fungicidal activity

# Same assay, conditions: especially low amounts and low concentrations; cited from earlier work
row,SMILES,action at low amounts and low concentrations (prior art)
1,"c1ccc(C(c2ccccc2)(c2ccccc2)n2cncn2)cc1 [A, triphenyl-1,2,4-triazol-1-yl-methane, reference compound]",not always entirely satisfactory
